Results published in US20090131481A1, “Transcription Factor Modulating Compounds and Methods of Use Thereof” (Paratek Pharmaceuticals, Inc., published 2009).
Like-named read-outs stand apart in the source and are kept apart here.

Key:
Y. pseudotuberculosis = assay: microbe, parasite or virus in culture; conditions: Yersinia pseudotuberculosis, J774, read-out: % Cytotoxicity
LcrF (VirF) = LcrF (VirF) (Yersinia pestis, UniProt P28808); assay: biochemical; type: binding, Y. pseudotuberculosis
P. aeruginosa = P. aeruginosa cytotoxicity whole cell assay (J774 cells, LDH release); conditions: relative to vehicle treated cells infected with wild type P. aeruginosa
ExsA = molecular target: T1, ExsA (Pseudomonas aeruginosa, UniProt P26993); assay: Chemiluminescence-based ExsA-DNA binding assay; design: species or system P. aeruginosa; conditions: Table 7, cell-free system; read-out: ExsA EC50
T1 construct: made in house
T1 sequence (P26993 1-278): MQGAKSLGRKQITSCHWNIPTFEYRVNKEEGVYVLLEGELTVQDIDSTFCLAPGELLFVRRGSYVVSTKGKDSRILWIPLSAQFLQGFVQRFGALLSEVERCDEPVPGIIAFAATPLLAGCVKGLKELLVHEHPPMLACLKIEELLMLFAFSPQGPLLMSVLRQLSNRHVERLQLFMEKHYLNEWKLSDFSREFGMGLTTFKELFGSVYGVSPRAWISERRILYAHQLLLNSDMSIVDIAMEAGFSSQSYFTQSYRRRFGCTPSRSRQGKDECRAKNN

[1] = EC50 for inhibition of LcrF(VirF)-DNA binding
[2] = read-out: EC50 for inhibition of LcrF(VirF)-DNA binding

Chain of LcrF (VirF) (P28808 whole entry, looked up): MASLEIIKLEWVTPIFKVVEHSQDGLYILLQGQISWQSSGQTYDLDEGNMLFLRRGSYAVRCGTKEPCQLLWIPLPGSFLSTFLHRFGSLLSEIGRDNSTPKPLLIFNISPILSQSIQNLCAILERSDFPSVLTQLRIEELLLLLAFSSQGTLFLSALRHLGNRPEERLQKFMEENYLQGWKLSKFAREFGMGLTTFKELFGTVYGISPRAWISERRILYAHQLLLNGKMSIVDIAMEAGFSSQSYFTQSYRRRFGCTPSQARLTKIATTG

SMILES	activity at 50 µg/mL (Y. pseudotuberculosis)	EC50 (LcrF (VirF); [1])	Cytotoxicity at 50 μg/mL Pseudomonas (P. aeruginosa)	EC50 (LcrF (VirF); [2])	EC50 (ExsA)
CC(=O)c1ccc(C(=O)Nc2ccc(-c3nc4ccc(C#N)cc4n3O)cc2)cc1 [AA]	< 75%	> 25 µM	** (reduced P. aeruginosa cytotoxicity below 75% of untreated, wild type levels at 50 mg/mL)	–	–
COc1ccc(/C=C/C(=O)Nc2ccc(-c3nc4ccc([N+](=O)[O-])cc4n3O)cc2)c(OC)c1 [AK]	75 to 99%	> 25 µM	* (reduced P. aeruginosa cytotoxicity to 99-75% of untreated, wild type levels at 50 mg/mL)	–	–
O=C(/C=C/c1ccc(-n2ccnc2)cc1)Nc1ccc(-c2nc3ccc([N+](=O)[O-])cc3n2O)cc1 [AM, (E)-N-[4-(1-Hydroxy-6-nitro-1H-benzoimidazol-2-yl)-phenyl]-3-(4-imidazol-1-yl-phenyl)-acrylamide]	75 to 99%	–	** (reduced P. aeruginosa cytotoxicity below 75% of untreated, wild type levels at 50 mg/mL)	> 25 µM	–
N#Cc1ccc(C(=O)Nc2ccc(-c3nc4ccc(C#N)cc4n3O)cc2)cc1 [CO]	75 to 99%	–	* (reduced P. aeruginosa cytotoxicity to 99-75% of untreated, wild type levels at 50 mg/mL)	–	–
Cc1ccc(/C=C/C(=O)Nc2ccc(-c3nc4ccc(C#N)cc4n3O)cc2)cc1 [CP]	75 to 99%	10 to 25 µM	* (reduced P. aeruginosa cytotoxicity to 99-75% of untreated, wild type levels at 50 mg/mL)	–	–
O=C(Nc1ccc(-c2nc3ccc([N+](=O)[O-])cc3n2O)cc1)/C(=C/c1ccccc1)c1ccccc1 [CQ]	< 75%	–	** (reduced P. aeruginosa cytotoxicity below 75% of untreated, wild type levels at 50 mg/mL)	–	10 to 25 µM
O=C(Nc1ccc(-c2nc3ccc([N+](=O)[O-])cc3n2O)cc1)/C(F)=C/c1ccccc1 [CR]	< 75%	10 to 25 µM	** (reduced P. aeruginosa cytotoxicity below 75% of untreated, wild type levels at 50 mg/mL)	–	–
O=C(C/C=C/c1ccccc1)Nc1ccc(-c2nc3ccc([N+](=O)[O-])cc3n2O)cc1 [CY]	< 75%	> 25 µM	* (reduced P. aeruginosa cytotoxicity to 99-75% of untreated, wild type levels at 50 mg/mL)	–	–
CC(=O)c1ccc(C(=O)Nc2ccc(-c3nc4ncc([N+](=O)[O-])cc4n3O)cc2)cc1 [DJ]	< 75%	10 to 25 µM	* (reduced P. aeruginosa cytotoxicity to 99-75% of untreated, wild type levels at 50 mg/mL)	–	–
O=C(/C=C/c1ccc(F)cc1)Nc1ccc(-c2nc3ccc([N+](=O)[O-])cc3n2OCP(=O)(O)O)cc1 [DW, (2-{4-[(E)-3-(4-Fluoro-phenyl)-acrloylamino]-phenyl}-6-nitro-benzoimidazol-1-yloxymethyl)-phosphonic acid]	75 to 99%	–	* (reduced P. aeruginosa cytotoxicity to 99-75% of untreated, wild type levels at 50 mg/mL)	–	–
O=C(/C=C/c1ccc(F)cc1)Nc1ccc(-c2nc3ccc([N+](=O)[O-])cc3n2O)cn1 [DY]	< 75%	–	* (reduced P. aeruginosa cytotoxicity to 99-75% of untreated, wild type levels at 50 mg/mL)	–	–
O=C(/C=C/c1ccc(F)cc1)Nc1ccc(-c2nc3ccc([N+](=O)[O-])cc3n2O)nc1 [DZ]	< 75%	10 to 25 µM	* (reduced P. aeruginosa cytotoxicity to 99-75% of untreated, wild type levels at 50 mg/mL)	–	–
O=C(/C=C/c1ccc(F)cc1F)Nc1ccc(-c2nc3ccc([N+](=O)[O-])cc3n2O)nc1 [EA]	< 75%	–	* (reduced P. aeruginosa cytotoxicity to 99-75% of untreated, wild type levels at 50 mg/mL)	–	–
O=C(/C=C/c1ccc(F)cc1F)Nc1ccc(-c2nc3ccc([N+](=O)[O-])cc3n2O)cn1 [EB]	< 75%	–	* (reduced P. aeruginosa cytotoxicity to 99-75% of untreated, wild type levels at 50 mg/mL)	–	–
CCOP(=O)(Cc1cc(/C=C/C(=O)Nc2ccc(-c3nc4ccc([N+](=O)[O-])cc4n3O)cc2)ccc1F)OCC [EF]	< 75%	–	* (reduced P. aeruginosa cytotoxicity to 99-75% of untreated, wild type levels at 50 mg/mL)	–	–
O=C(/C=C/c1ccc(F)cc1)Nc1ccc(-c2nc3ccc([N+](=O)[O-])cc3n2O)c(F)c1 [EI]	75 to 99%	–	* (reduced P. aeruginosa cytotoxicity to 99-75% of untreated, wild type levels at 50 mg/mL)	–	10 to 25 µM

SMILES	activity at 50 µg/mL (Y. pseudotuberculosis)	EC50 (LcrF (VirF); [1])	Cytotoxicity at 50 μg/mL Pseudomonas (P. aeruginosa)	EC50 (LcrF (VirF); [2])	EC50 (ExsA)
CC(=O)c1ccc(C(=O)Nc2ccc(-c3nc4ccc([N+](=O)[O-])cc4n3O)cc2F)cc1 [EM, 4-Acetyl-N-[2-fluoro-4-(1-hydroxy-6-nitro-H-benzoimidazol-2-yl)-phenyl]-benzamide]	< 75%	10 to 25 µM	* (reduced P. aeruginosa cytotoxicity to 99-75% of untreated, wild type levels at 50 mg/mL)	–	–
Cc1cc2nc(-c3ccc(NC(=O)/C=C/c4ccc(F)cc4)cc3)n(O)c2cc1[N+](=O)[O-] [EO, (E)-3-(4-Fluoro-phenyl)-N-[4-(1-hydroxy-5-methyl-6-nitro-1H-benzoimidazol-2-yl)-phenyl]-acrylamide]	75 to 99%	–	** (reduced P. aeruginosa cytotoxicity below 75% of untreated, wild type levels at 50 mg/mL)	–	–
CC(=O)c1ccc(C(=O)Nc2ccc(-c3nc4cc(C)c([N+](=O)[O-])cc4n3O)cc2)cc1 [EQ]	< 75%	–	* (reduced P. aeruginosa cytotoxicity to 99-75% of untreated, wild type levels at 50 mg/mL)	–	–
O=C(/C=C/c1ccc(F)cc1)Nc1ccc(-c2nc3cc(F)c([N+](=O)[O-])cc3n2O)cc1 [FA, N-[4-(5-Fluoro-1-hydroxy-6-nitro-1H-benzoimidazol-2-yl)-phenyl]-3-(4-fluoro-cinnamyl)-amide]	–	> 25 µM	** (reduced P. aeruginosa cytotoxicity below 75% of untreated, wild type levels at 50 mg/mL)	–	10 to 25 µM
CN(C)C(=O)c1ccc(C(=O)Nc2ccc(-c3nc4ccc([N+](=O)[O-])cc4n3O)cc2)cc1 [FB]	< 75%	–	* (reduced P. aeruginosa cytotoxicity to 99-75% of untreated, wild type levels at 50 mg/mL)	–	> 25 µM
O=C(/C=C/c1ccc(F)cc1)Nc1ccc(-c2nc3ccc(-n4ccnc4)cc3n2O)cc1 [FT]	–	> 25 µM	* (reduced P. aeruginosa cytotoxicity to 99-75% of untreated, wild type levels at 50 mg/mL)	–	10 to 25 µM
CC(=O)c1ccc(/C=C/C(=O)Nc2ccc(-c3nc4cc(OCCN5CCOCC5)c([N+](=O)[O-])cc4n3O)cc2)cc1 [FV]	–	–	** (reduced P. aeruginosa cytotoxicity below 75% of untreated, wild type levels at 50 mg/mL)	> 25 µM	> 25 µM
CC(=O)c1ccc(/C=C/C(=O)Nc2ccc(-c3nc4ccc(C#N)cc4n3O)cc2)cc1 [FW]	–	10 to 25 µM	** (reduced P. aeruginosa cytotoxicity below 75% of untreated, wild type levels at 50 mg/mL)	–	10 to 25 µM
O=C(/C=C/c1ccc(F)cc1)Nc1ccc(-c2nc3ccc(-n4cccn4)cc3n2O)cc1 [FX, (E)-3-(4-Fluoro-phenyl)-N-[4-(1-hydroxy-6-pyrazol-1-yl-1H-benzoimidazol-2-yl)-phenyl]-acrylamide]	–	> 25 µM	* (reduced P. aeruginosa cytotoxicity to 99-75% of untreated, wild type levels at 50 mg/mL)	–	> 25 µM
CC(=O)c1ccc(C(=O)Nc2ccc(-c3nc4ccc(-n5cccn5)cc4n3O)cc2)cc1 [FY, 4-Acetyl-N-[4-(1-hdroxyy-6-pyrazol-1-yl-1H-benzoimidazol-2-yl)-phenyl]-benzamide]	–	–	* (reduced P. aeruginosa cytotoxicity to 99-75% of untreated, wild type levels at 50 mg/mL)	> 25 µM	> 25 µM
N#Cc1ccc2nc(-c3ccc(NC(=O)c4ccc(-n5ccnc5)cc4)cc3)n(O)c2c1 [GA]	–	10 to 25 µM	** (reduced P. aeruginosa cytotoxicity below 75% of untreated, wild type levels at 50 mg/mL)	–	10 to 25 µM
O=C(/C=C/c1ccc(-n2ccnc2)nc1)Nc1ccc(-c2nc3ccc([N+](=O)[O-])cc3n2O)cc1 [GS]	–	–	** (reduced P. aeruginosa cytotoxicity below 75% of untreated, wild type levels at 50 mg/mL)	–	10 to 25 µM
O=C(/C=C/c1ccc(C(F)(F)F)nc1)Nc1ccc(-c2nc3ccc([N+](=O)[O-])cc3n2O)cc1 [GT]	–	–	** (reduced P. aeruginosa cytotoxicity below 75% of untreated, wild type levels at 50 mg/mL)	–	< 10 µM
CS(=O)(=O)c1ccc(/C=C/C(=O)Nc2ccc(-c3nc4ccc([N+](=O)[O-])cc4n3O)cc2)cc1 [GU]	–	–	** (reduced P. aeruginosa cytotoxicity below 75% of untreated, wild type levels at 50 mg/mL)	–	< 10 µM
N#Cc1ccc2nc(-c3ccc(NC(=O)/C=C/c4ccc(-n5ccnc5)nc4)cc3)n(O)c2c1 [GV]	–	–	** (reduced P. aeruginosa cytotoxicity below 75% of untreated, wild type levels at 50 mg/mL)	–	> 25 µM
